According to patent US6359144B1, “Combinatorial libraries of bicyclic guanidine derivatives and compounds therein” (Lion Bioscience AG, priority 1997, dated 2002):
Like-named read-outs stand apart in the source and are kept apart here.

What was measured:
σ receptor = target: T1, σ receptor (Rattus norvegicus, UniProt Q9R0C9); assay: σ receptor radio-receptor binding assay
T1 construct: can be performed with particulate membranes prepared using a modification of the method described in Pasternak et al; tissue Rockland (Gilbertsville, Pa.); host or cells: rat brain minus cerebellum, crude particulate membranes
Source text: Additionally, such compounds can be tested in a σ receptor assay. Ligands for the σ receptor can be useful as antipsychotic agents, as described in Abou-Gharbia et al., Annual Reports in Medicinal Chemistry, 28:1-10 (1993).
Radio-receptor assays, such as those whose results are shown in Examples IV, V and VI, below, can be performed with particulate membranes prepared using a modification of the method described in Pasternak et al., Mol. Pharmacol. 11:340-351 (1975), which is incorporated herein by reference. Rat brains frozen in liquid nitrogen can be obtained from Rockland (Gilbertsville, Pa.). The brains are thawed, the cerebella removed and the remaining tissue weighed. Each brain is individually homogenized in 40 ml Tris-HCl buffer (50 mM, pH 7.4, 4° C.) and centrifuged (Sorvall® RC5C SA-600: Du Pont, Wilmington, Del.) (16,000 rpm) for 10 minutes. The pellets are resuspended in fresh Tris-HCl buffer and incubated at 37° C. for 40 minutes. Following incubation, the suspensions are centrifuged as before, the resulting pellets resuspended in 100 volumes of Tris buffer and the suspensions combined. Membrane suspensions are prepared and used in the same day.
Binding assays are carried out in polypropylene tubes, each tube containing 0.5 ml of membrane suspension. 8 nM of ^3H-[D-Ala^2,Me-Phe^4,Gly-ol^5]enkephalin (DAMGO) (specific activity=36 Ci/mmol, 160,000 cpm per tube; which can be obtained from Multiple Peptide Systems, San Diego, Calif., through NIDA drug distribution program 271-90-7302) and 80 μg/ml of bicyclic guanidine, individual or as a mixture and Tris-HCl buffer in a total volume of 0.65 ml. Assay tubes are incubated for 60 mins. at 25° C. The reaction is terminated by filtration through GF-B filters on a Tomtec harvester (Orange, Conn.). The filters are subsequently washed with 6 ml of Tris-HCl buffer, 4° C. Bound radioactivity is counted on a Pharmacia Biotech Betaplate Liquid Scintillation Counter (Piscataway, N.J.) and expressed in cpm. To determine inter- and intra-assay variation, standard curves in which ^3H-DAMGO is incubated in the presence of a range of concentrations of unlabeled DAMGO (0.13-3900 nM) are generally included in each plate of each assay (a 96-well format). Competitive inhibition assays are performed as above using serial dilutions of the bicyclic guanidines, individually or in mixtures.
As opposed to this μ receptor selective assay, which can be carried out using ^3H-DAMGO as radioligand, as described above, assays selective for κ receptors can be carried out using [^3H]-U69,593 (3 nM, specific activity 62 Ci/mmol) as radioligand. Assays selective for δ opiate receptors can be carried out using tritiated DSLET ([D-Ser^2, D-Leu^5]-threonine-enkephalin) as radioligand. Assays selective for the σ opiate receptor can use radiolabeled pentazocine as ligand.

κ-opioid receptor = target: T2, κ-opioid receptor (Rattus norvegicus, UniProt P34975); assay: κ-opioid receptor radio-receptor binding assay ([3H]-U69,593); conditions: Table 9
T2 construct: can be performed with particulate membranes prepared using a modification of the method described in Pasternak et al; tissue Rockland (Gilbertsville, Pa.); host or cells: rat brain minus cerebellum, crude particulate membranes

[1] = 24 individual compounds, Table 10
[2] = 24 individual compounds, read-out: IC50
[3] = 17 additional individual compounds, Table 11

T2 sequence (P34975 whole entry): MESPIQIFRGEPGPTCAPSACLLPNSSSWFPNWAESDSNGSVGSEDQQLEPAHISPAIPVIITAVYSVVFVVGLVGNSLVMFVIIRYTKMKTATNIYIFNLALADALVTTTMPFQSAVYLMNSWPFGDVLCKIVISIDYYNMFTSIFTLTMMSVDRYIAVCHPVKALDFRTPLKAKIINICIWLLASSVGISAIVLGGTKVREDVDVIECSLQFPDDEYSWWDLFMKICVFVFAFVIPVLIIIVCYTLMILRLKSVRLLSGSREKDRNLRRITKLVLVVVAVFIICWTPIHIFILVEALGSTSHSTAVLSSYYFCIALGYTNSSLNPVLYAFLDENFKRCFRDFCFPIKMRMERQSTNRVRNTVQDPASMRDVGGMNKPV
T1 sequence (Q9R0C9 whole entry): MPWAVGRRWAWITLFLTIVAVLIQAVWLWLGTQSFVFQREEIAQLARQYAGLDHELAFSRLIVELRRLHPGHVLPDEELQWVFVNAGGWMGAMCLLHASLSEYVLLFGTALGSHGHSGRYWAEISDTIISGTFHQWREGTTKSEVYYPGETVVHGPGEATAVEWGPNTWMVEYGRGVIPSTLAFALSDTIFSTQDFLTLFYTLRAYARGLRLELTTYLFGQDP

IC50 (σ receptor; [3]) [nM] | Compound | IC50 (σ receptor; [1]) [nM] | also measured
69 | CCN1C2=NC[C@H](Cc3ccccc3)N2C[C@@H]1Cc1ccc(OC)cc1 [Phe/Tyr(Me)/acetic acid] |  | 
127 | CCN1C2=NC[C@H](Cc3ccccc3)N2C[C@H]1Cc1ccc(Cl)cc1 [Phe/pCl-phe/acetic acid] |  | 
60 | CCN1C2=NCC(Cc3ccccc3)N2CC1Cc1ccc(Cl)cc1 (stereo not drawn) [Phe/pCl-Phe/acetic acid] |  | 
214 | CCCC[C@H]1CN=C2N(CC)[C@@H](Cc3ccccc3)CN21 [Nle/Phe/acetic acid] |  | 
112 | CC(C)(C)CCN1C2=NC[C@H](Cc3ccccc3)N2C[C@@H]1Cc1ccccc1 [Phe/Phe/(tert-butyl)acetic acid] |  | 
119 | CCN1C2=NC[C@H](Cc3ccccc3)N2C[C@H]1C1CCCCC1 [Phe/chg/acetic acid] |  | 
242 | CCN1C2=NC[C@H](Cc3ccccc3)N2C[C@H]1Cc1ccc(F)cc1 [Phe/pF-phe/acetic acid] |  | 
215 | CCN1C2=NC[C@H](Cc3ccccc3)N2C[C@@H]1Cc1ccc(F)cc1 [Phe/pF-Phe/acetic acid] |  | 
65 | CCN1C2=NC[C@H](Cc3ccccc3)N2C[C@@H]1Cc1ccc(I)cc1 [Phe/pI-Phe/acetic acid] |  | 
156 | CC(C)CCN1C2=NC[C@H](Cc3ccccc3)N2C[C@@H]1Cc1ccccc1 [Phe/Phe/isovaleric acid] |  | 

The remaining lines, values behind:

Compound | IC50 (σ receptor; [3]) [nM] | IC50 (σ receptor; [1]) [nM] | also measured
COc1ccc(CC2CN3C(=NCC3C)N2CCC23CC4CC(CC(C4)C2)C3)cc1 (stereo not drawn) [compound 13] |  | 235 | IC50 (κ-opioid receptor; IC50, 24 individual compounds): 1520 nM
CC(C)C[C@@H]1CN2C(=NC[C@@H]2C)N1CCCC1CCCCC1 [compound 7] |  | 530 | IC50 (κ-opioid receptor; [2]): 5440 nM
C1CCC(CCCN2C3=NC[C@H](C4CCCCC4)N3C[C@@H]2C2CCCCC2)CC1 [compound 12] |  | 210 | 
CCN1C2=NCC(Cc3ccccc3)N2CC1CC1CCCCC1 (stereo not drawn) [Phe/Cha/acetic acid] | 52 |  | 
COc1ccc(C[C@H]2CN3C(=NC[C@@H]3C3CCCCC3)N2CCCC2CCCCC2)cc1 [compound 3] |  | 23 | 
CC(C)C[C@@H]1CN2C(=NC[C@@H]2C2CCCCC2)N1CCCC1CCCCC1 [compound 9] |  | 13 | IC50 (κ-opioid receptor; [2]): 3740 nM
COc1ccc(C[C@H]2CN3C(=NC[C@@H]3C)N2CCCC2CCCCC2)cc1 [compound 4] |  | 52 | 
C1CCC(CCCN2C3=NC[C@@H](C4CCCCC4)N3C[C@@H]2C2CCCCC2)CC1 [compound 11] |  | 405 | 
CC(C)CC1CN2C(=NCC2C2CCCCC2)N1CCC12CC3CC(CC(C3)C1)C2 (stereo not drawn) [compound 21] |  | 124 | IC50 (κ-opioid receptor; IC50, 24 individual compounds): 1210 nM
CC(C)CC1CN2C(=NCC2C)N1CCC12CC3CC(CC(C3)C1)C2 (stereo not drawn) [compound 19] |  | 974 | IC50 (κ-opioid receptor; IC50, 24 individual compounds): 3640 nM
COc1ccc(CC2CN3C(=NCC3C)N2CCC23CC4CC(CC(C4)C2)C3)cc1 (stereo not drawn) [compound 16] |  | 1080 | IC50 (κ-opioid receptor; IC50, 24 individual compounds): 238 nM
COc1ccc(CC2CN3C(=NCC3C3CCCCC3)N2CCC23CC4CC(CC(C4)C2)C3)cc1 (stereo not drawn) [compound 15] |  | 256 | IC50 (κ-opioid receptor; IC50, 24 individual compounds): 4920 nM
COc1ccc(C[C@H]2CN3C(=NC[C@H]3C3CCCCC3)N2CCCC2CCCCC2)cc1 [compound 2] |  | 585 | 
